Among the data in publication PMC9300104 (2021) are KD and binding values, retold here.

Assay [1] deals with Gdn49 P1mut (A14G, GG) (RNA, riboswitch) GGUUUGCAGGACGGCCUGCAAACGCCUCUUUUCACCGGGGACGGCCCCA
In words: 1H-1D NMR titration, U17 imino, Hill fit. Particulars: 5 mM Mg2+, 50 mM KCl; 25 mM potassium phosphate, pH 6.2, room temperature, 50 μM RNA, Hill n 1.35.

Assay [2] deals with Gdn13 wt (P2 wild-type, ACGG loop) (RNA, riboswitch) GGGGACGGCCCCA
Put plainly: 1H-1D NMR titration. The settings on record: 5 mM Mg2+, 50 mM KCl; 25 mM potassium phosphate, pH 6.2, room temperature; KD not detected; up to 8 mM Gdm+ (Table 2).

Assay [3] concerns Gdn23 wt (P1 wild-type, ACGA loop) (RNA, riboswitch) GGUUUGCAGGACGACCUGCAAAC
In words: 1H-1D NMR titration, U17 imino, Hill fit. Particulars: 5 mM Mg2+, 50 mM KCl; 25 mM potassium phosphate, pH 6.2, room temperature, 50 μM RNA, Hill n 1.16.

Assay [4] concerns Gdn49 P1P2mut (A14G, G44A, GA) (RNA, riboswitch) GGUUUGCAGGACGGCCUGCAAACGCCUCUUUUCACCGGGGACGACCCCA
Put plainly: 1H-1D NMR titration, U17 imino, Hill fit. The settings on record: 5 mM Mg2+, 50 mM KCl; 25 mM potassium phosphate, pH 6.2, room temperature, 50 μM RNA, Hill n 1.38.

Assay [5] relates to Gdn49 wt (aptamer wild-type, AG) (RNA, riboswitch) GGUUUGCAGGACGACCUGCAAACGCCUCUUUUCACCGGGGACGGCCCCA
Put plainly: 1H-1D NMR titration, U17 imino, Hill fit. Particulars: 5 mM Mg2+, 50 mM KCl; 25 mM potassium phosphate, pH 6.2, room temperature, 50 μM RNA, Hill n 1.10; no binding without Mg2+.

The subject of assay [6] is Gdn49 P2mut (G44A, AA) (RNA, riboswitch) GGUUUGCAGGACGACCUGCAAACGCCUCUUUUCACCGGGGACGACCCCA
Put plainly: 1H-1D NMR titration, U17 imino, Hill fit. The settings on record: 5 mM Mg2+, 50 mM KCl; 25 mM potassium phosphate, pH 6.2, room temperature, 50 μM RNA, Hill n 1.01; two bound signals summed.

Assay [7] relates to Gdn13 G44A (RNA, riboswitch) GGGGACGACCCCA
Put plainly: 1H-1D NMR, chemical shift perturbation. The settings on record: 5 mM Mg2+, 50 mM KCl; 25 mM potassium phosphate, pH 6.2, room temperature, 20 μM RNA, 1 mM Gdm+.

By KD is commonly meant the concentration at which binding is half-saturated. High values mean lower affinity, low ones higher affinity. For the compound `N=C(N)N`, the KD in assay [1] was 264.3 ± 27.8 µM; in assay [3], 197.4 ± 8.8 µM; in assay [4] it was 165.0 ± 14.3 µM; in assay [5], 133.4 ± 3.9 µM; in assay [6], 58.9 ± 8.1 µM. Besides, the figures for the binding result in assay [2] and in assay [7] were “no” and “yes”, respectively.
